Source: patent publication US6914045B2, “Glycopeptide antibiotics” (Wyeth Holdings Corporation, priority 2001, dated 2005)
In brackets after ≈: the same amount, converted by molar mass.

How the values were obtained:
Assay in all cases: in vitro antibacterial evaluation, MIC by broth dilution
Assay type in all cases: cell-based
[1] = tested on: Escherichia coli; conditions: 18 hours at 35° C., strain ATCC 25922
How it was run: (§1)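 Broth dilution per NCCLS M7-A2 in Mueller-Hinton II medium, inoculum 5×10^5 CFU/mL, antibiotic range 64-0.06 μg/mL. MIC taken as lowest concentration inhibiting growth; Gram-positive panel includes recent clinical isolates resistant to methicillin, penicillin and/or vancomycin.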

[2] = tested on: Staphylococcus sp.; conditions: broth dilution, 18 hours at 35° C.
How it was run: as §1

[3] = tested on: Enterococcus sp.; conditions: broth dilution, 18 hours at 35° C.
How it was run: as §1

[4] = tested on: Streptococcus sp.; conditions: broth dilution, 18 hours at 35° C.
How it was run: as §1

MIC Escherichia coli (ATCC 25922) [1]: 16 µg/mL (≈ 11.4 µM) | MIC Coagulase Negative Staphylococcus (GC 4547) [2]: 1 µg/mL (≈ 0.712 µM) | MIC Coagulase Negative Staphylococcus (GC 4548) [2]: <0.5 µg/mL | MIC Coagulase Negative Staphylococcus (GC 4549) [2]: 1 µg/mL (≈ 0.712 µM) | MIC Coagulase Negative Staphylococcus (GC 4551) [2]: 1 µg/mL (≈ 0.712 µM) | MIC Coagulase Negative Staphylococcus (ID-3941) [2]: 1 µg/mL (≈ 0.712 µM) | MIC Staphylococcus aureus (ATCC 29213) [2]: 1 µg/mL (≈ 0.712 µM) | MIC Staphylococcus aureus (GC 1131) [2]: 1 µg/mL (≈ 0.712 µM) | MIC Staphylococcus aureus (GC 4541) [2]: 1 µg/mL (≈ 0.712 µM) | MIC Staphylococcus aureus (GC 4542) [2]: 1 µg/mL (≈ 0.712 µM) | MIC Staphylococcus aureus (GC 4544) [2]: 1 µg/mL (≈ 0.712 µM) | MIC Staphylococcus aureus (GC 4545) [2]: 1 µg/mL (≈ 0.712 µM) | MIC Staphylococcus aureus-SMITH (GC 4543) [2]: 1 µg/mL (≈ 0.712 µM) | MIC Staphylococcus aureus (GC 1131) ([2]; inoculum 5×10^5 CFU/mL, strain GC 1131): 1 µg/mL (≈ 0.712 µM) | MIC Staphylococcus aureus (ATCC 29213) ([2]; strain ATCC 29213): 1 µg/mL (≈ 0.712 µM) | MIC Staphylococcus aureus (GC 4541) ([2]; strain GC 4541): 1 µg/mL (≈ 0.712 µM) | MIC Staphylococcus aureus (GC 4542) ([2]; strain GC 4542): 1 µg/mL (≈ 0.712 µM) | MIC Staphylococcus aureus (GC 4544) ([2]; strain GC 4544): 1 µg/mL (≈ 0.712 µM) | MIC Staphylococcus aureus (GC 4545) ([2]; strain GC 4545): 1 µg/mL (≈ 0.712 µM) | MIC Coagulase Negative Staphylococcus (GC 4547) ([2]; strain GC 4547): 1 µg/mL (≈ 0.712 µM) | MIC Coagulase Negative Staphylococcus (GC 4548) ([2]; strain GC 4548): <0.5 µg/mL | MIC Coagulase Negative Staphylococcus (GC 4549) ([2]; strain GC 4549): 1 µg/mL (≈ 0.712 µM) | MIC Coagulase Negative Staphylococcus (GC 4551) ([2]; strain GC 4551): 1 µg/mL (≈ 0.712 µM) | MIC Coagulase Negative Staphylococcus (ID-3941) ([2]; strain ID-3941): 1 µg/mL (≈ 0.712 µM) | MIC Staphylococcus aureus-SMITH (GC 4543) ([2]; strain SMITH GC 4543): 1 µg/mL (≈ 0.712 µM) | MIC Enterococcus avium (GC 4558) ([3]; Enterococcus avium (GC 4558)): 2 µg/mL (≈ 1.42 µM) | MIC Enterococcus faecalis (ATCC 29212) ([3]; Enterococcus faecalis (ATCC 29212)): 2 µg/mL (≈ 1.42 µM) | MIC Enterococcus faecalis (GC 2242) ([3]; Enterococcus faecalis (GC 2242)): 2 µg/mL (≈ 1.42 µM) | MIC Enterococcus faecalis (GC 4552) ([3]; Enterococcus faecalis (GC 4552)): 2 µg/mL (≈ 1.42 µM) | MIC Enterococcus faecalis (GC 4553) ([3]; Enterococcus faecalis (GC 4553)): 2 µg/mL (≈ 1.42 µM) | MIC Enterococcus faecalis (GC 4554) ([3]; Enterococcus faecalis (GC 4554)): 2 µg/mL (≈ 1.42 µM) | MIC Enterococcus faecium (GC 2243) ([3]; Enterococcus faecium (GC 2243)): 1 µg/mL (≈ 0.712 µM) | MIC Enterococcus faecium (GC 4556) ([3]; Enterococcus faecium (GC 4556)): 2 µg/mL (≈ 1.42 µM) | MIC Enterococcus faecium (GC 4557) ([3]; Enterococcus faecium (GC 4557)): 1 µg/mL (≈ 0.712 µM) | MIC Enterococcus faecalis (ATCC 29212) ([3]; strain ATCC 29212): 2 µg/mL (≈ 1.42 µM) | MIC Enterococcus faecalis (GC 2242) ([3]; strain GC 2242): 2 µg/mL (≈ 1.42 µM) | MIC Enterococcus faecium (GC 2243) ([3]; strain GC 2243): 1 µg/mL (≈ 0.712 µM) | MIC Enterococcus faecalis (GC 4552) ([3]; strain GC 4552): 2 µg/mL (≈ 1.42 µM) | MIC Enterococcus faecalis (GC 4553) ([3]; strain GC 4553): 2 µg/mL (≈ 1.42 µM) | MIC Enterococcus faecalis (GC 4554) ([3]; strain GC 4554): 2 µg/mL (≈ 1.42 µM) | MIC Enterococcus faecium (GC 4556) ([3]; strain GC 4556): 2 µg/mL (≈ 1.42 µM) | MIC Enterococcus faecium (GC 4557) ([3]; strain GC 4557): 1 µg/mL (≈ 0.712 µM) | MIC Enterococcus avium (GC 4558) ([3]; strain GC 4558): 2 µg/mL (≈ 1.42 µM) | MIC Streptococcus agalactiae (GC 4564) ([4]; Streptococcus agalactiae (GC 4564)): <0.5 µg/mL | MIC Streptococcus pneumoniae (GC 4565) ([4]; Streptococcus pneumoniae (GC 4565)): <0.5 µg/mL | MIC Streptococcus pyogenes (ID-3187) ([4]; Streptococcus pyogenes (ID-3187)): <0.5 µg/mL | MIC Streptococcus agalactiae (GC 4564) ([4]; strain GC 4564): <0.5 µg/mL | MIC Streptococcus pneumoniae (GC 4565) ([4]; strain GC 4565): <0.5 µg/mL | MIC Streptococcus pyogenes (ID-3187) ([4]; strain ID-3187): <0.5 µg/mL
Compound: CCCCCCCC1OCC2OC(OC3C(CO)OC(Oc4ccc(CC5NC(=O)C(C(C)c6ccccc6)NC(=O)CNC(=O)C(CO)NC(=O)C(C(O)C6CNC(=N)N6C6OC(CO)C(O)C(O)C6O)NC(=O)C(C(O)C6CNC(=N)N6)NC5=O)cc4)C(O)C3O)C(O)C(O)C2O1 (stereo not drawn) [Example 109, Cyclo[glycyl-β-methylphenylalanyl-O-[4-O-(4,6-O-octylidenehexopyranosyl)hexopyranosyl]-tyrosyl-3-(2-iminoimidazolidin-4-yl)seryl-3-(3-hexopyranosyl-2-iminoimidazolidin-4-yl)-serylseryl]]
MIC Staphylococcus haemolyticus (GC 4546) [2]: 1 µg/mL (≈ 0.712 µM) | MIC Staphylococcus haemolyticus (GC 4546) ([2]; strain GC 4546): 1 µg/mL (≈ 0.712 µM)
